{"source": "patent EP3498273A1", "about": "“PHARMACEUTICAL COMPOSITION FOR MODULATING THE RESPONSE OF A GABA-A RECEPTOR” (Universität Wien, priority 2017, dated 2019)", "key": {"[1]": {"target": "GABAA receptors composed of α1β1γ2S subunits (Homo sapiens, UniProt P14867+P18505)", "sequence (P14867 28-456)": "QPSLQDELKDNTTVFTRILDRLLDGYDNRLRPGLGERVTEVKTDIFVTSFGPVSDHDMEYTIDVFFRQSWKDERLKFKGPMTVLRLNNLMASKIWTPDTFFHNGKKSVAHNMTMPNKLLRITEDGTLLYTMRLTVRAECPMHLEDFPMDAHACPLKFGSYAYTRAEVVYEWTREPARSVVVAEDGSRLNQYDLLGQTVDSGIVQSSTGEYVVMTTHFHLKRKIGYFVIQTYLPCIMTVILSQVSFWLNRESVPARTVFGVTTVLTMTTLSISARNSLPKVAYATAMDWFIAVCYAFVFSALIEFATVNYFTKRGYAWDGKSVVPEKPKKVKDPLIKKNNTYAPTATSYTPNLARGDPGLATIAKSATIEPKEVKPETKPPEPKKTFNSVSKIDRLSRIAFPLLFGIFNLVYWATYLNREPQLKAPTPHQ", "sequence (P18505 26-474)": "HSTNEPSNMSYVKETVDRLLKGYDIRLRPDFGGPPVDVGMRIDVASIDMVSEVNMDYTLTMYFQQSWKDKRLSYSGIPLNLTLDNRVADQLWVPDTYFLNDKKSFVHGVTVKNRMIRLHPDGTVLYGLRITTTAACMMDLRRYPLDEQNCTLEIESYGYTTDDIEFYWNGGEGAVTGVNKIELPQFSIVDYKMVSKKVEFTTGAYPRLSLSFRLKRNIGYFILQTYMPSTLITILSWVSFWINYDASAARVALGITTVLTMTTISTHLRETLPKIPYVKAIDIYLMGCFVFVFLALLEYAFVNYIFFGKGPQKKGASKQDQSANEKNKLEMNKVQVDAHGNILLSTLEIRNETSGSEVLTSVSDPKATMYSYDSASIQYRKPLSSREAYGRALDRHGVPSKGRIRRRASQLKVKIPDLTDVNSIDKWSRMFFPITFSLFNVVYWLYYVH", "sequence (P18507 40-467 isoform P18507-1 partner limits assumed)": "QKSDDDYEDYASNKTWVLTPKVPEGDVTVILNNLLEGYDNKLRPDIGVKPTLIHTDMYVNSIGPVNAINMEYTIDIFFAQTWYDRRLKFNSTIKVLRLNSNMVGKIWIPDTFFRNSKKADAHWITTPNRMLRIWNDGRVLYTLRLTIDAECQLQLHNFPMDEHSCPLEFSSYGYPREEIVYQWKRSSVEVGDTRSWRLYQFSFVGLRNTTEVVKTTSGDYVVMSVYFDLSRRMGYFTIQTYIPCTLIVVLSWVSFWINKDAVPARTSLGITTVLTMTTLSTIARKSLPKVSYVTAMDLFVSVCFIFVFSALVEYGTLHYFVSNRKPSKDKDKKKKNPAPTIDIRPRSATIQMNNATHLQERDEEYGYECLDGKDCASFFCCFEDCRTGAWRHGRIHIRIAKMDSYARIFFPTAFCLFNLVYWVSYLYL", "assay": "Two-microelectrode voltage clamp: IGABA enhancement in Xenopus laevis oocytes", "details": "replacing β2/3 by β1; Emax and EC50 not determined"}, "[2]": {"tested_on": "male C57BL/6N mice", "assay": "Seizure threshold upon pentylenetetrazole (PTZ) tail-vein infusion", "type": "in vivo", "details": "intraperitoneal, 30 min before the test, n = 4, control 39.5 ± 0.8", "method": "Only male C57BL/6N mice (age 3-6 months) were used for determination of the seizure threshold. Intraperitoneal injection of control or compound-containing solutions was done 30 min before the test. Indicated doses in the results represent milligrams per kilogram body weight. Seizure threshold was determined by pentylenetetrazole (PTZ) tail-vein infusion on freely moving animals at a rate of 100 µl/min (10 mg/ml PTZ in saline, pH = 7.4). […] Animals were immediately killed by cervical displacement after onset of seizures. The seizure threshold dose was calculated from the infused dose in relation to body weight (mg/kg)."}, "[3]": {"tested_on": "native GABAA receptors, primary cultures of dissociated hippocampal neurons", "assay": "Whole-cell patch clamp on cultured hippocampal neurons (miniature IPSCs and tonic currents)", "type": "cell-based", "details": "10 µM compound, holding potential -70 mV"}, "[4]": {"target": "GABAA receptors composed of α1β2γ2S subunits (Homo sapiens, UniProt P14867+P47870)", "sequence (P14867 28-456)": "as the sequence (P14867 28-456) above", "sequence (P47870 26-474 isoform P47870-1 limits assumed)": "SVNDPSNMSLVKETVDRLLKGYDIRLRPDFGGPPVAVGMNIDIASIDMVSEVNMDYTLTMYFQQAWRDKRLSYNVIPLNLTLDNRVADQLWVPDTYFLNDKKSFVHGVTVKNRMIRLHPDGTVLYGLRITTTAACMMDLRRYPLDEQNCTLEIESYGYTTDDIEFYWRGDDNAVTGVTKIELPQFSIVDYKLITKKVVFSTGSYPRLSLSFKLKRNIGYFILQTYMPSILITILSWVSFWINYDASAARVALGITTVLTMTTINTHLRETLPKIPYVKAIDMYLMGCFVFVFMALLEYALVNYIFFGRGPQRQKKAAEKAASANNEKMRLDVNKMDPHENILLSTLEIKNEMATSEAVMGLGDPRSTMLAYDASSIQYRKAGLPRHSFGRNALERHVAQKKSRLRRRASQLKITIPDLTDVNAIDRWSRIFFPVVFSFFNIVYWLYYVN", "sequence (P18507 40-467 isoform P18507-1 partner limits assumed)": "as the sequence (P18507 40-467 isoform P18507-1 partner limits assumed) above", "assay": "Two-microelectrode voltage clamp: IGABA enhancement in Xenopus laevis oocytes"}}, "data": [{"smiles": "C/C(=C/C#N)c1ccc(Cl)cc1Cl", "note": "[Compound Z-2, (2Z)-3-(2,4-dichlorophenyl)but-2-enenitrile]", "values": [{"measurement": "sensitivity of the resulting GABAA channels", "setting": "[1]", "result": "drastically reduced the sensitivity"}, {"measurement": "seizure threshold", "setting": "[2]; 0.1 mg/kg body weight", "result": "48.5 ± 2.3", "unit": "mg/kg PTZ"}, {"measurement": "seizure threshold", "setting": "[2]; 0.3 mg/kg body weight", "result": "52.3±1.6", "unit": "mg/kg PTZ"}, {"measurement": "amplitude of mIPSCs", "setting": "[3]", "result": "no effect"}, {"measurement": "frequency of mIPSCs", "setting": "[3]", "result": "no effect"}, {"measurement": "holding currents", "setting": "[3]", "result": "shifted towards more negative values"}, {"measurement": "decay of mIPSCS (normalized)", "setting": "[3]; compared to control, n=5", "result": "213.8 ± 41.0", "unit": "%"}, {"measurement": "EC50", "setting": "[4]", "result": "9.9 ± 2.5", "unit": "µM"}, {"measurement": "Emax", "setting": "[4]; second β2/3 channel of Fig. 1B, printed as α1β3γ2S, n = 3, no unit at this value", "result": "1804.9 ± 153.0", "unit": "%"}]}]}
